Laboratory results published in paper PMC9951290, “Comprehensive Structure–Activity Relationship Studies of Cepafungin Enabled by Biocatalytic C–H Oxidations” (ACS Central Science, 2023).

Key:
RPMI 8226 cells = test: Cytotoxicity measurement (WST-1), RPMI 8226; type: cell-based, human; conditions: Homo sapiens; RPMI 8226, 48 hours, WST-1, n = 3; read-out: Cytotoxicity EC50 (cell viability)
Experimental: Cellular assays were performed on human multiple myeloma RPMI 8226 cells (Figure 4). First, relative inhibition of proteasome subunits β5 and β2 for all analogues and the natural product was measured at 30 nM compound concentration. Following incubation of the compounds in cell culture for 6 h, cells were lysed, and fluorogenic subunit-specific peptide substrates Suc-LLVY-AMC (β5) or Ac-RLR-AMC (β2) were incubated with the lysates; fluorescence readings provided relative proteasome activity levels in comparison with DMSO (Figure 4A). Next, cytotoxicity screening was performed at 30 and 100 nM concentrations for sufficient coverage of dynamic range (Figure 4B). […] Therefore, the improved cytotoxicity of phenyl cepafungin 50 likely results from a more pronounced loss of β5 function in RPMI 8226 cells. This drastic increase in proteasome inhibition may be due to π-stacking of the lipid tail phenyl ring with the β6 subunit residues Tyr106 and/or Tyr5. The β2 subunit-bound natural product has residues Tyr102 and Phe103 on the adjacent β3 subunit oriented further away from the terminal lipid methyl groups, and presumably would not facilitate π-stacking to the extent possible at the adjacent β6 subunit (see Figure 3 and Figure S4). […] These combined modifications were made in hopes that the effects of both substitutions would be additive. […] The presence of a Thr residue next to the cepafungin macrocycle appears to be favored over the ethyl side chain of desoxy-Thr analogue 44 as indicated by cytotoxicity and hydrogen-bonding seen in the cepafungin-bound crystal structure (Figures 3 and 4B).
AMC (β5) or Ac-RLR-AMC (β2). […]
Cytotoxicity Measurements
in DMSO) or DMSO and cultured for 48 hours. Toxicity was determined using the WST-1 assay
(Roche) according to the protocol of the manufacturer. (n = 3)
Figure S1. […]

20S proteasome subunits = test: Competitive in situ LC-MS/MS pull-down with alkyne probe S10 and 1 (Figure S1, Table S3); type: cell-based, human; conditions: 100 nM 1 versus 10 μM S10, RPMI 8226; targets: 20S proteasome subunits β5, β2i, α5, β1, β2
Experimental: To determine the targets of cepafungin I in human MM cells through chemoproteomics, a clickable analogue (S10) was designed with alkyne functionality distal to the reactive macrocycle (i.e., at the end of the fatty acid chain). The synthesis of S10 proceeded in a similar fashion as in Scheme 2B except with the tail fragment built from initial alkyne substitution of 6-bromo-1-hexanol. […] To identify these targets, a competitive in situ LC-MS/MS-based pull-down experiment was performed using alkyne probe S10 and 1. Following live cell treatment with just the probe or the probe together with the natural product, alkyne conjugation to biotin-azide and pull-down with streptavidin beads, the probe analogue enriched 764 proteins from RPMI 8226. […] These targets were identified as the 20S proteasome subunits β5, β2i, α5, β1, and β2, highlighting cepafungin’s exceptional selectivity for the proteasome in MM cells (Figure S1 and Table S3). […] The “i” suffix here denotes subunits of the immunoproteasome, which is produced by most cells exposed to oxidative stress or proinflammatory cytokines and also by immune cells at especially high baseline levels.[37] […]
fluorescence was read at A360ex/A460em. […]
in DMSO) or DMSO and cultured for 48 hours. Toxicity was determined using the WST-1 assay (Roche) according to the protocol of the manufacturer. […]

proteasome subunit β5 = biological target: T1, proteasome subunit β5 (Homo sapiens, UniProt P28074); conditions: in situ in RPMI 8226 cells; preliminary analogue series, Figure 2; cited from earlier work
T1 construct: Following incubation of the compounds in cell culture for 6 h, cells were lysed; endogenous in cells; host or cells: RPMI 8226 (human multiple myeloma)

β5-subunit = conditions: purified yeast proteasome; cited from earlier work

Which results are given for CC(C)CCCCCC=CC=CC(=O)NC(C(=O)NC1CC(O)CCNC(=O)C=CC(C)NC1=O)C(C)O (stereo not shown) [compound 1, cepafungin I]?
EC50 (RPMI 8226 cells): 0.014 µM; number of enriched proteins competed >50% (20S proteasome subunits): 5 proteins; IC50 (proteasome subunit β5): 0.016 ± 0.001 µM; fold improvement of β5-subunit inhibition compared to glidobactin A (2) (β5-subunit): ca. 5 fold
